Test results reported in patent US6534524B1, “Indazole compounds and pharmaceutical compositions for inhibiting protein kinases, and methods for their use” (Agouron Pharmaceuticals, Inc., priority 1999, dated 2003).
Like-named read-outs stand apart in the source and are kept apart here.

Legend:
human CHK1 (FL-CHK1) = biological target: T1, human CHK1 (FL-CHK1) (Homo sapiens, UniProt O14757); test: CHK1 assay (coupled spectrophotometric, Syntide-2); type: biochemical; conditions: for CHK-1 @ 20 μM: Table 4, compound at 20 μM; for Ki: read-out: CHK-1 Ki
T1 construct: C-terminally His-tagged full-length human CHK1 (FL-CHK1); made in house; host or cells: baculovirus/insect cell system
T1 sequence (O14757 1-476): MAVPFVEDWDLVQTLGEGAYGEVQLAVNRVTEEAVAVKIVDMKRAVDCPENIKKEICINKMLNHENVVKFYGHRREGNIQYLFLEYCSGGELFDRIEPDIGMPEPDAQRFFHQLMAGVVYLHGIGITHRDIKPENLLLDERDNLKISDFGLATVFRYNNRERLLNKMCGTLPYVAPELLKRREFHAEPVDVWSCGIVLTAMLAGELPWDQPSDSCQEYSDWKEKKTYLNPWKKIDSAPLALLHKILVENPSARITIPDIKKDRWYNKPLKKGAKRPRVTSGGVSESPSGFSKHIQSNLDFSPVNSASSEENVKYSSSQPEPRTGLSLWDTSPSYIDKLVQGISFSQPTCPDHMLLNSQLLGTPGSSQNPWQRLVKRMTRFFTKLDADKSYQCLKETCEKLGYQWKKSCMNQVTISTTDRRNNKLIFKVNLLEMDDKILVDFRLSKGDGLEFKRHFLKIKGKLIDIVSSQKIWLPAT
From the text: CHK1 Construct for Assay: C-terminally His-tagged full-length human CHK1 (FL-CHK1) was expressed using the baculovirus/insect cell system. […] The protein was purified by conventional chromatographic techniques.
The production of ADP from ATP that accompanies phosphoryl transfer to the synthetic substrate peptide Syntide-2 ([…]) was coupled to oxidation of NADH using phosphoenolpyruvate (PEP) through the actions of pyruvate kinase (PK) and lactic dehydrogenase (LDH). The oxidation of NADH was monitored by following the decrease of absorbance at 340 nm (ε340=6.22 cm^−1 mM^−1) using a HP8452 spectrophotometer. […] Assays were initiated with 10 nM of FL-CHK1. Ki values were determined by measuring initial enzyme activity in the presence of varying concentrations of test compounds. The data were analyzed using Enzyme Kinetic and Kaleidagraph software.

CDK4/Cyclin D3 complex = CDK4/Cyclin D3 complex (Homo sapiens, UniProt P11802); test: CDK4/Cyclin D assay ([32P]ATP, Rb fragment)
Sequence of CDK4/Cyclin D3 complex (P11802 whole entry, the tested form may be a part): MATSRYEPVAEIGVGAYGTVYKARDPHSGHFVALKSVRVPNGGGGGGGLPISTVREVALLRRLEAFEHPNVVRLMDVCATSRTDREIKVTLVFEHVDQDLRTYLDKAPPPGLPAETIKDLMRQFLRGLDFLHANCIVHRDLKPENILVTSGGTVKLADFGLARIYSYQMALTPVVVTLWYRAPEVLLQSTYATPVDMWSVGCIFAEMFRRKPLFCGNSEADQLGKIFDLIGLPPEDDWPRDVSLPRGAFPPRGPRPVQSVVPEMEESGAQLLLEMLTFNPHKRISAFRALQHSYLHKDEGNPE
Sequence of CDK4/Cyclin D3 complex (P30281 whole entry partner, the tested form may be a part): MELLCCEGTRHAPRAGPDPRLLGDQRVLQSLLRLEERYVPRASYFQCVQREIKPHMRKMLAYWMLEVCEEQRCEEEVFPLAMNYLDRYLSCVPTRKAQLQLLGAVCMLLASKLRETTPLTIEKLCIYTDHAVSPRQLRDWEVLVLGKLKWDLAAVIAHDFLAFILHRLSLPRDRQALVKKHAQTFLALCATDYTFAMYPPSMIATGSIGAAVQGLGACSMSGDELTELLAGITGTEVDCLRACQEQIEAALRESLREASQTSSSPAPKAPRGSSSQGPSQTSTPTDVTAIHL

CDK2/Cyclin A = CDK2/Cyclin A (Homo sapiens, UniProt P24941); test: CDK2/Cyclin A assay ([32P]ATP, Rb fragment); type: biochemical
[1] = biological target: unphosphorylated VEGF-R2Δ50 (FLVK) (Homo sapiens, UniProt P35968, DEL940-989/E990V); test: VEGF-R2 coupled spectrophotometric assay, unphosphorylated VEGF-R2Δ50 (FLVK); conditions: FLVK Ki, Table 1
Sequence of unphosphorylated VEGF-R2Δ50 (FLVK) (P35968 with tags, fused parts or gaps DEL940-989/E990V limits assumed): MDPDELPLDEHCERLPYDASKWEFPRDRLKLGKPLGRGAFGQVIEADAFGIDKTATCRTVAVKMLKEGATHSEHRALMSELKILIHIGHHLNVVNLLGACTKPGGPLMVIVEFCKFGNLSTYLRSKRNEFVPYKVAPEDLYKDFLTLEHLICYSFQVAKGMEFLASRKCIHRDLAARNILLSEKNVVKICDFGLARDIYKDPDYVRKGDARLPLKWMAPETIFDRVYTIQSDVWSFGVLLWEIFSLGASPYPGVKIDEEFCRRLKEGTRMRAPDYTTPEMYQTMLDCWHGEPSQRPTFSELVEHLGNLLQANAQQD

## O=C(Nc1cc[nH]n1)c1ccc2c(-c3nc4ccccc4[nH]3)n[nH]c2c1
Human CHK1 (FL-CHK1)
  CHK-1 @ 20 μM: 52.4

## O=C(Nc1cc(O)[nH]n1)c1ccc2c(-c3nc4ccccc4[nH]3)n[nH]c2c1
Human CHK1 (FL-CHK1)
  CHK-1 @ 20 μM: 38.6

## Cc1nc(/C=C/c2n[nH]c3cc(-c4ccncc4)ccc23)cs1 [29(j), 6-Pyrid-4-yl-3-E-[2-(2-methylthiazol-4-yl)ethenyl]-1H-indazole]
Human CHK1 (FL-CHK1); Table 3
  Ki: 533 nM

## Fc1cccc(/C=C/c2n[nH]c3cc(-c4ccncc4)ccc23)c1F [29(l), 6-Pyrid-4-yl-3-E-[2-(2,3-difluorophenyl)ethenyl]-1H-indazole]
CDK4/Cyclin D3 complex
  Ki: 5000 nM
CDK2/Cyclin A; Table 3
  Ki: 3100 nM

## Nc1cccc(Oc2ccc3c(/C=C/c4ccccc4)n[nH]c3c2)c1 [Example 7, 3-(Styryl-1H-indazol-6-yloxy)-phenylamine]
[1]
  Ki: 18 nM
Human CHK1 (FL-CHK1); Table 1
  Ki: 1300 nM

## Brc1cccc(Oc2ccc3c(/C=C/c4ccccc4)n[nH]c3c2)c1 [Example 8(d), 6-(3-Bromo-phenoxy)-3-styryl-1H-indazole]
[1]
  Ki: 11 nM
Human CHK1 (FL-CHK1); Table 1
  Ki: 82000 nM

## C=C(c1ccccc1)c1ccc2c(/C=C/c3ccccc3)n[nH]c2c1 [Example 10, 6-(1-Phenyl-vinyl)-3-styryl-1H-indazole]
[1]
  Ki: 9 nM
Human CHK1 (FL-CHK1); Table 1
  Ki: 9100 nM

## O=C(c1ccccc1)c1ccc2c(/C=C/c3ccccc3)n[nH]c2c1 [Example 17, Phenyl-(3-styryl-1H-indazol-6-yl)-methanone]
Human CHK1 (FL-CHK1); Table 1
  Ki: 532 nM

## Cc1cc(O)ccc1-c1ccc2c(-c3nc4ccccc4[nH]3)n[nH]c2c1 [Example 24(b), 4-[3-(1-H-Benzoimidazol-2-yl)-1-H-indazol-6-yl]-3-methyl-phenol]
CDK4/Cyclin D3 complex
  Ki: 3.2 nM

## CCc1cc(O)ccc1-c1ccc2c(-c3nc4ccccc4[nH]3)n[nH]c2c1 [Example 24(e), 3-1H-Benzoimidazol-2-yl-6-(2-ethyl-4-hydroxyphenyl)-1H-indazole]
CDK4/Cyclin D3 complex
  Ki: 4.4 nM
CDK2/Cyclin A; Table 2
  Ki: 30 nM

## Oc1ccc(-c2ccc3c(-c4nc5ccccc5[nH]4)n[nH]c3c2)c(O)c1 [Example 24(f), 3-1H-Benzoimidazol-2-yl-6-(2,4-dihydroxyphenyl)-1H-indazole]
CDK4/Cyclin D3 complex
  Ki: 7.4 nM
CDK2/Cyclin A; Table 2
  Ki: 7.2 nM

## COc1cc(O)ccc1-c1ccc2c(-c3nc4ccc(C(=O)NCCN5CCOCC5)cc4[nH]3)n[nH]c2c1 [Example 25(b), 3-[6-(2-Morpholin-4-yl-ethylcarbamoyl)-1H-benzoimidazol-2-yl]-6-(2-methoxy-4-hydroxyphenyl)-1H-indazole]
CDK4/Cyclin D3 complex
  Ki: 48 nM

## COc1cc(O)ccc1-c1ccc2c(-c3nc4ccc(N5CCN(C)CC5)cc4[nH]3)n[nH]c2c1 [Example 25(c), 3-[6-(4-Methylpiperazin-1-yl)-1H-benzoimidazol-2-yl]-6-(2-methoxy-4-hydroxyphenyl)-1H-indazole]
CDK4/Cyclin D3 complex
  Ki: 15.5 nM

## COc1cc(O)ccc1-c1ccc2c(-c3ncc[nH]3)n[nH]c2c1 [Example 25(e), 3-Imdazol-2-yl-6-(2-methoxy-4-hydroxyphenyl)-1H-indazole]
CDK4/Cyclin D3 complex
  Ki: 181 nM

## C(=C\c1n[nH]c2cc(-c3cccc4[nH]ccc34)ccc12)/c1ccccc1 [Example 27(g), 6-Indol-4-yl-3-E-styryl-1H-indazole]
Human CHK1 (FL-CHK1); Table 3
  Ki: 850 nM

## COc1ccc(-c2ccc3c(/C=C/c4ccccc4)n[nH]c3c2)cn1 [Example 27(k), 6-(2-Methoxypyridin-5-yl)-3-E-styryl-1H-indazole]
Human CHK1 (FL-CHK1); Table 3
  Ki: 24000 nM

## Oc1ccc(-c2ccc3c(/C=C/c4ccccc4)n[nH]c3c2)cc1 [Example 28(b)]
Human CHK1 (FL-CHK1); Table 3
  Ki: 14.3 nM

## Oc1ccc(-c2ccc3c(/C=C/c4ccccc4)n[nH]c3c2)cc1O [Example 28(d), 6-(3,4-Dihydroxyphenyl)-3-E-styryl-1H-indazole]
Human CHK1 (FL-CHK1); Table 3
  Ki: 18 nM

## C(=C\c1n[nH]c2cc(-c3ccncc3)ccc12)/c1ccc(-c2ccccc2)cc1 [Example 29(d), 6-Pyrid-4-yl-3-E-[2-(biphenyl-4-yl)ethenyl]-1H-indazole]
Human CHK1 (FL-CHK1); Table 3
  Ki: 10000 nM

## C(=C\c1n[nH]c2cc(-c3ccncc3)ccc12)/c1ccc2ccccc2c1 [Example 29(k), 6-Pyrid-4-yl-3-E-[2-(naphthalen-2-yl)ethenyl]-1H-indazole]
Human CHK1 (FL-CHK1); Table 3
  Ki: 1300 nM

## Fc1cc(F)cc(/C=C/c2n[nH]c3cc(-c4ccncc4)ccc23)c1 [Example 29(m), 6-Pyrid-4-yl-3-E-[2-(3,5-difluorophenyl)ethenyl]-1H-indazole]
Human CHK1 (FL-CHK1); Table 3
  Ki: 1000 nM

## C(=C\c1n[nH]c2cc(-c3ccncc3)ccc12)/c1cccc(-c2ccccc2)c1 [Example 29(n), 6-Pyrid-4-yl-3-E-[2-(biphenyl-3-yl)ethenyl]-1H-indazole]
Human CHK1 (FL-CHK1); Table 3
  Ki: 16000 nM

## Fc1cccc(F)c1/C=C/c1n[nH]c2cc(-c3ccncc3)ccc12 [Example 29(o), 6-Pyrid-4-yl-3-E-[2-(2,6-difluorophenyl)ethenyl]-1H-indazole]
Human CHK1 (FL-CHK1); Table 3
  Ki: 46000 nM

## C(=C\c1n[nH]c2cc(-c3ccncc3)ccc12)/c1nc2ccccc2[nH]1 [Example 29(q), 6-Pyrid-4-yl-3-E-[2-(4-benzimidazol-2-yl)ethenyl]-1H-indazole]
Human CHK1 (FL-CHK1); Table 3
  Ki: 11000 nM

## C(=C\c1n[nH]c2cc(-c3ccncc3)ccc12)/c1ccc[nH]1 [Example 29(t), 6-Pyrid-4-yl-3-E-[2-(1H-pyrrol-2-yl)ethenyl]-1H-indazole]
Human CHK1 (FL-CHK1); Table 3
  Ki: 72 nM

## O=C(NC1CC1)c1ccc2c(-c3nc4ccccc4[nH]3)n[nH]c2c1 [Example 53(b), 3-(1H-Benzoimidazol-2-yl)-N-cyclopropyl-1H-indazole-6-carboxamide]
Human CHK1 (FL-CHK1); Table 3
  Ki: 1400 nM

## O=C(NOCc1ccccc1)c1ccc2c(-c3nc4ccccc4[nH]3)n[nH]c2c1 [Example 53(f), 3-(1H-Benzoimidazol-2-yl)-N-benzyloxy-1H-indazole-6-carboxamide]
Human CHK1 (FL-CHK1); Table 3
  Ki: 7300 nM

## O=C(Nc1ccc(O)c(F)c1)c1ccc2c(-c3nc4ccccc4[nH]3)n[nH]c2c1 [Example 53(g), 3-(1H-Benzoimidazol-2-yl)-N-(3-fluoro-4-hydroxyphenyl)-1H-indazole-6-carboxamide]
Human CHK1 (FL-CHK1); Table 3
  Ki: 1500 nM

## O=C(Nc1ccc(O)cc1)c1ccc2c(-c3nc4cc(Cl)c(Cl)cc4[nH]3)n[nH]c2c1 [Example 54(b), 3-(5,6-Dichloro-1H-benzoimidazol-2-yl)-N-(4-hydroxyphenyl)-1H-indazole-6-carboxamide]
Human CHK1 (FL-CHK1); Table 3
  Ki: 3100 nM

## O=C(Nc1ccc(O)cc1)c1ccc2c(-c3nc4cc5ccccc5cc4[nH]3)n[nH]c2c1 [Example 54(d), 3-[1H-Naphtho(2,3-d)imidazol-2-yl]-N-(4-hydroxyphenyl)-1H-indazole-6-carboxamide]
Human CHK1 (FL-CHK1); Table 3
  Ki: 680 nM

## Cc1ccc2[nH]c(-c3n[nH]c4cc(C(=O)Nc5ccc(O)cc5)ccc34)nc2c1C [Example 54(f), 3-(4,5-Dimethyl-1H-benzoimidazol-2-yl)-N-(4-hydroxyphenyl)-1H-indazole-6-carboxamide]
Human CHK1 (FL-CHK1); Table 3
  Ki: 2900 nM

## O=C(Nc1ccc(O)cc1)c1ccc2c(-c3nc4cc(C(F)(F)F)ccc4[nH]3)n[nH]c2c1 [Example 54(h), 3-(5-Trifluoromethyl-1H-benzoimidazol-2-yl)-N-(4-hydroxyphenyl)-1H-indazole-6-carboxamide]
Human CHK1 (FL-CHK1); Table 3
  Ki: 1000 nM

## O=C(Nc1ccc(O)cc1)c1ccc2c(-c3nc4cc(Cl)ccc4[nH]3)n[nH]c2c1 [Example 54(l), 3-(5-Chloro-1H-benzoimidazol-2-yl)-N-(4-hydroxyphenyl)-1H-indazole-6-carboxamide]
Human CHK1 (FL-CHK1); Table 3
  Ki: 990 nM

## c1ccc2[nH]c(-c3n[nH]c4cc(-c5ccncc5)ccc34)nc2c1 [Example 55, 3-1H-Benzoimidazol-2-yl-6-pyridin-4-yl-1H-indazole]
Human CHK1 (FL-CHK1); Table 3
  Ki: 10000 nM

## O=C(NC1CCS(=O)(=O)C1)c1ccc2c(-c3nc4ccccc4[nH]3)n[nH]c2c1 (stereo not drawn) [drawing 1226]
Human CHK1 (FL-CHK1)
  CHK-1 @ 20 μM: 24.2

## O=C(Nc1ccc2[nH]c(=O)[nH]c2c1)c1ccc2c(-c3nc4ccccc4[nH]3)n[nH]c2c1 [drawing 1232]
Human CHK1 (FL-CHK1)
  CHK-1 @ 20 μM: 32.3

## O=C(Nc1cnccn1)c1ccc2c(-c3nc4ccccc4[nH]3)n[nH]c2c1 [drawing 1245]
Human CHK1 (FL-CHK1)
  CHK-1 @ 20 μM: 36.3

## O=C(Nc1ncnc2[nH]cnc12)c1ccc2c(-c3nc4ccccc4[nH]3)n[nH]c2c1 [drawing 1250]
Human CHK1 (FL-CHK1)
  CHK-1 @ 20 μM: 38.6

## COc1ccc(NC(=O)c2ccc3c(-c4nc5ccccc5[nH]4)n[nH]c3c2)cc1O [drawing 1257]
Human CHK1 (FL-CHK1)
  CHK-1 @ 20 μM: 32.3

## COC(=O)c1ccc(NC(=O)c2ccc3c(-c4nc5ccccc5[nH]4)n[nH]c3c2)o1 [drawing 1258]
Human CHK1 (FL-CHK1)
  CHK-1 @ 20 μM: 42.9

## C=CCC(NC(=O)c1ccc2c(-c3nc4ccccc4[nH]3)n[nH]c2c1)c1ccccn1 (stereo not drawn) [drawing 1259]
Human CHK1 (FL-CHK1)
  CHK-1 @ 20 μM: 24.1

## COC(=O)c1cc(NC(=O)c2ccc3c(-c4nc5ccccc5[nH]4)n[nH]c3c2)ccc1O [drawing 1260]
Human CHK1 (FL-CHK1)
  CHK-1 @ 20 μM: 31.6
